Test results: US8426429B2, “2-amino-quinazoline derivatives useful as inhibitors of β-secretase (BACE)” (Jansssen Pharmaceutica N.V., priority 2004, dated 2013)

How the values were obtained:
Assay type in all cases: biochemical
[1] = biological target: T1, β-secretase (BACE) (Homo sapiens, UniProt P56817); assay: BACE % Inhibition Assay ((Aedens)-[…]-(Dabcyl K-amide) substrate); details: % error ±10%
T1 construct: purchased Panvera
Experimental: (§1) The substrate stock solution was prepared in DMSO as a 10 mg/mL solution. The substrate working solution was prepared by diluting the 10 mg/mL stock solution with substrate assay buffer to a final concentration of […]. The β-secretase (BACE) working solution was prepared by diluting a 0.83 mg/mL BACE stock solution with enzyme assay buffer to a final concentration of 4 μg/mL.
Test compounds were dissolved in DMSO to 10 mM.
The screening procedure for this assay was as follows: 15 μL of BACE working solution was pipetted into each well of a 96-well plate. To each well was then pipetted 2 μL of test compound at the selected concentration. Test compound and BACE were then mixed with a pipettor and incubated for 20 min at room temperature. To each well was then added 10 μL of the substrate working solution. The plates were then incubated for 1 hour at room temperature.
The procedure for the blank was as follows. 15 μL of assay buffer was pipetted into each well to be used as a blank control. To each well was then added 2 μL of vehicle and 10 μL of substrate working solution. The plates were then incubated for 1 hour at room temperature.
The procedure for the positive control was as follows: 15 μl of BACE working solution was pipetted into each well to be used as a positive control. To each well was then pipetted 2 μL of vehicle. Vehicle and BACE were then mixed with a pipettor and incubated for 20 min at room temperature. To each well was then added 10 μL of the substrate working solution. The plates were the incubated for 1 hour at room temperature.
For test compounds, % inhibition was determined at each concentration as follows: […]

[2] = biological target: T1, β-secretase (BACE); assay: BACE FS1 % Inhibition Assay; details: for inhibition at 0.3 µM / inhibition at 1 µM / inhibition at 3 µM: read-out: % Inhibition (FS)
Method in brief: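 Percent inhibition per compound concentration was referenced to vehicle-treated enzyme and no-enzyme wells. Enzyme at a 4 μg/mL working stock plus compound was mixed for 20 min at room temperature before the FS1 substrate (300 μg/mL working stock) was added for a 1 h room-temperature reaction.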

[3] = biological target: T1, β-secretase (BACE); assay: BACE Assay-2 (FS1 substrate, IC50 and Ki); details: procedure of Example 159, FS1 substrate
Experimental: as §1, with “The FS1-substrate” for “The substrate”
Test compounds were dissolved in DMSO at 10 mM.
The procedure for this assay was as follows: 15 μL of BACE working solution was pipetted into each well of a 96-well plate. To each well was then pipetted 2 μL of test compound at the selected concentration. Test compound and BACE were then mixed with a pipettor and incubated for 20 min at room temperature. To each well was then added 10 μL of the FS1 substrate working solution.
The procedure for the positive control was as follows:15 μL of BACE working solution was pipetted into each well to be used as a positive control. To each well was then pipetted 2 μL of vehicle. Vehicle and BACE were then mixed with a pipettor and incubated for 20 min at room temperature. To each well was then added 10 μL of the FS1 substrate working solution.
For test compounds, measured at multiple concentrations, the measured T0 and T60 values were used to calculate an IC50 value using Graphpad Software (or PIR). For test compounds, Ki inhibition was determined as follows: For each compound concentration and positive control, rate of cleavage of substrate (Vi, where i=compound concentration in μM) was determined as Δ Fluorescence/Δ time (min). Cleavage rates (Vi) were plotted as a function of inhibitor concentration in μM [I]. The Ki was then determined by fitting the following equation to the graph of [I] vs Vi Y=aVmax/(50+24*(1+X/Ki)),

T1 sequence (P56817 46-501): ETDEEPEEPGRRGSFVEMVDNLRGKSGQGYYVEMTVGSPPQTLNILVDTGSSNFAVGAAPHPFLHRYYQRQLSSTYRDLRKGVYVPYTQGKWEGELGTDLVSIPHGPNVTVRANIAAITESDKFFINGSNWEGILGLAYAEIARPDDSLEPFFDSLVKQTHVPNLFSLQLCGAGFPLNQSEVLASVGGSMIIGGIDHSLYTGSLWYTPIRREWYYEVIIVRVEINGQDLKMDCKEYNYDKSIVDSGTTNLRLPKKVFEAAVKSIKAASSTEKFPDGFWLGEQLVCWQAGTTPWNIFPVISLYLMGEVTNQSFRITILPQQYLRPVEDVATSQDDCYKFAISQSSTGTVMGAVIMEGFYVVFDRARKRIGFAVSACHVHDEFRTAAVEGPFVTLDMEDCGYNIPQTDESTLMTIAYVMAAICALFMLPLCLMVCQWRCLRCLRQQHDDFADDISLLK

Row | % Inhibition ([1]; 3 μM compound) | % Inhibition ([1]; 10 μM compound) | % Inhibition ([1]; 0.3 μM compound) | % Inhibition ([1]; 1 μM compound) | Compound | also measured
1 | <30% | <30% | – | – | CCCC(CCCC(=O)N(CC)C1CCCCC1)N1Cc2cc(Oc3ccccc3)ccc2N=C1N (centres unmarked) [Compound 105] | % Inhibition (FS) ([2]; 0.3 μM test compound): <30%; % Inhibition (FS) ([2]; 1 μM test compound): <30%; % Inhibition (FS) ([2]; 3 μM test compound): <30%
2 | 111% | – | <30% | 80% | CC(C)(C)OC(=O)NCC(C1CCCCC1)N1Cc2cc(Oc3ccccc3)ccc2N=C1N (centres unmarked) [Compound 367] | –
3 | 118% | – | 81% | 101% | CCCC(CNC(=O)C1CCCCC1)N1Cc2cc(Oc3ccccc3)ccc2N=C1N (centres unmarked) [Compound 343] | –
4 | – | – | <30% | 50% | NC1=Nc2ccc(Oc3ccccc3)cc2CN1C(CNC(=O)C1(c2ccc(Cl)cc2)CCCC1)C1CCCCC1 (centres unmarked) [Compound 390] | –
5 | 119% | – | 50% | 93% | NC1=Nc2ccc(Oc3ccccc3)cc2CN1C(CNC(=O)C1CCCCC1)c1ccccc1 (centres unmarked) [Compound 342] | –
6 | <30% | <30% | – | – | CN(C(=O)C1CCC(CN2Cc3cc(Oc4ccccc4)ccc3N=C2N)CC1)C1CCCCC1 (centres unmarked) [Compound 100] | –
7 | 119% | – | 64% | 113% | NC1=Nc2ccc(Oc3ccccc3)cc2CN1C(CNC(=O)CCC1CCCC1)C1CCCCC1 (centres unmarked) [Compound 366] | –
8 | <30% | <30% | – | – | CC(C)(C)OC(=O)N1CCC(N2Cc3cc(Oc4ccccc4)ccc3N=C2N)C1 (centres unmarked) [Compound 93] | –
9 | – | – | <30% | 66% | CC(C)(C)C(=O)NCC(C1CCCCC1)N1Cc2cc(Oc3ccccc3)ccc2N=C1N (centres unmarked) [Compound 317] | –
10 | <30% | <30% | – | – | CN(C(=O)[C@@H]1CC[C@H](N2Cc3cc(Oc4ccccc4)ccc3N=C2N)C1)C1CCCCC1 [Compound 77] | –
11 | 120% | – | 75% | 116% | NC1=Nc2ccc(Oc3ccccc3)cc2CN1C(CCNC(=O)C1CCCC1)C1CCCCC1 (centres unmarked) [Compound 392] | –

Continued, compound first:

Row | Compound | % Inhibition ([1]; 3 μM compound) | % Inhibition ([1]; 10 μM compound) | % Inhibition ([1]; 0.3 μM compound) | % Inhibition ([1]; 1 μM compound) | also measured
12 | CN(C(=O)[C@@H]1CCCN1C(=O)CN1Cc2cc(Oc3ccccc3)ccc2N=C1N)C1CCCCC1 [Compound 88] | <30% | <30% | – | – | –
13 | CCN(CC)CCN1Cc2cc(Oc3ccccc3)ccc2N=C1N [Compound 79] | <30% | <30% | – | – | –
14 | CCCC(CCC)C(=O)NCc1cccc(CN2Cc3cc(Oc4ccccc4)ccc3N=C2N)c1 [Compound 338] | <30% | – | <30% | <30% | –
15 | NC1=Nc2ccc(Oc3ccccc3)cc2CN1Cc1cccc(CNC(=O)C(c2ccccc2)c2ccccc2)c1 [Compound 337] | <30% | – | <30% | <30% | –
16 | CN(C(=O)[C@@H]1CCCC[C@@H]1N1Cc2cc(Oc3ccccc3)ccc2N=C1N)C1CCCCC1 [Compound 87] | <30% | <30% | – | – | –
17 | CN(C(=O)c1ccc(CN2Cc3cc(Oc4ccccc4)ccc3N=C2N)cc1)C1CCCCC1 [Compound 97] | <30% | 53% | – | – | –
18 | CC(C)CCC(=O)NCC(C1CCCCC1)N1Cc2cc(Oc3ccccc3)ccc2N=C1N (centres unmarked) [Compound 388] | – | – | – | – | inhibition at 0.3 µM ([1]; 0.3 μM compound): 107%; inhibition at 1 µM ([1]; 1 μM compound): 119%; inhibition at 3 µM ([1]; 3 μM compound): 119%; Ki [3]: 0.063 µM
19 | CCOC(=O)CCN1Cc2cc(Oc3ccccc3)ccc2N=C1N [Compound 65] | <30% | <30% | – | – | –
20 | CCCCC(CC)C(=O)NCC(c1ccccc1)N1Cc2cc(Oc3ccccc3)ccc2N=C1N (centres unmarked) [Compound 341] | 72% | – | <30% | <30% | –
21 | CCCCC(CC)C(=O)NCc1cccc(CN2Cc3cc(Oc4ccccc4)ccc3N=C2N)c1 (centres unmarked) [Compound 339] | <30% | – | <30% | <30% | –
22 | CN(C(=O)c1cccc(CN2Cc3cc(-c4ccccc4Oc4ccccc4)ccc3N=C2N)c1)C1CCCCC1 [Compound 326] | – | – | – | – | inhibition at 0.3 µM ([2]; 0.3 μM test compound): < 30%; inhibition at 1 µM ([2]; 1 μM test compound): 35%; inhibition at 3 µM ([2]; 3 μM test compound): 79%; Ki [3]: 0.42 µM
23 | CN(C(=O)[C@H]1CCCC[C@H]1N1Cc2cc(Oc3ccccc3)ccc2N=C1N)C1CCCCC1 [Compound 81] | <30% | <30% | – | – | –
24 | CC(C)C(CNC(=O)C12CC3CC(CC(C3)C1)C2)N1Cc2cc(Oc3ccccc3)ccc2N=C1N (centres unmarked) [Compound 562] | – | – | – | – | inhibition at 0.3 µM ([2]; 0.3 μM test compound): 106%; inhibition at 1 µM ([2]; 1 μM test compound): 118%; inhibition at 3 µM ([2]; 3 μM test compound): 128%; Ki [3]: 0.026 µM
25 | CN(CCCCC(=O)O)C(=O)CC[C@@H](C1CCCCC1)N1Cc2cc(Oc3ccccc3)ccc2N=C1N [Compound 752] | – | – | – | – | inhibition at 0.3 µM ([2]; 0.3 μM compound, FS1 substrate): 45%; inhibition at 1 µM ([2]; 1 μM compound, FS1 substrate): 81%; inhibition at 3 µM ([2]; 3 μM compound, FS1 substrate): 109%; Ki [3]: 0.221 µM
26 | Cc1ccc(S(=O)(=O)NCCN2Cc3cc(Oc4ccccc4)ccc3N=C2N)cc1 [Compound 109] | <30% | 58% | – | – | –
27 | CC(C)N1CCC(N(C)C(=O)CC[C@@H](C2CCCCC2)N2Cc3cc(Oc4ccccc4)ccc3N=C2N)CC1 [Compound 728] | – | – | – | – | inhibition at 0.3 µM ([2]; 0.3 μM compound, FS1 substrate): 43%; inhibition at 1 µM ([2]; 1 μM compound, FS1 substrate): 58%; inhibition at 3 µM ([2]; 3 μM compound, FS1 substrate): 97%; Ki [3]: 0.38 µM
28 | NC1=Nc2ccc(-c3ccccc3)cc2CN1CCNC(=O)Cc1ccccc1 [Compound 595] | – | – | – | – | inhibition at 0.3 µM ([2]; 0.3 μM test compound): 32%; inhibition at 1 µM ([2]; 1 μM test compound): 70%; inhibition at 3 µM ([2]; 3 μM test compound): 104%; Ki [3]: 0.33 µM
29 | CN(C(=O)CC[C@@H](C1CCCCC1)N1Cc2cc(Oc3ccccc3)ccc2N=C1N)C1CCC(=O)CC1 [Compound 711] | – | – | – | – | inhibition at 0.3 µM ([2]; 0.3 μM compound, FS1 substrate): < 30%; inhibition at 1 µM ([2]; 1 μM compound, FS1 substrate): 43%; inhibition at 3 µM ([2]; 3 μM compound, FS1 substrate): 113%; Ki [3]: 0.45 µM
30 | CN(C(=O)CC[C@@H](C1CCCCC1)N1Cc2cc(Oc3ccccc3)ccc2N=C1N)C1CCC2(CC1)OCCO2 [Compound 710] | – | – | – | – | inhibition at 0.3 µM ([2]; 0.3 μM compound, FS1 substrate): < 30%; inhibition at 1 µM ([2]; 1 μM compound, FS1 substrate): 68%; inhibition at 3 µM ([2]; 3 μM compound, FS1 substrate): 126%; Ki [3]: 0.3 µM
31 | CN(C(=O)[C@@H]1CCC[C@@H]1N1Cc2cc(Oc3ccccc3)ccc2N=C1N)C1CCCCC1 [Compound 72] | <30% | <30% | – | – | –
32 | CN(C(=O)CCC(C1CCCCC1)N1Cc2cc(Oc3ccccc3)ccc2N=C1N)C(COCc1ccccc1)C(=O)O (centres unmarked) [Compound 781] | – | – | – | – | inhibition at 0.3 µM ([2]; 0.3 μM compound, FS1 substrate): 106%; inhibition at 1 µM ([2]; 1 μM compound, FS1 substrate): 109%; inhibition at 3 µM ([2]; 3 μM compound, FS1 substrate): 121%; Ki [3]: 0.038 µM
33 | COC(=O)[C@H]1CC[C@H](NC(=O)CC[C@@H](C2CCOCC2)N2Cc3cc(Oc4ccccc4)ccc3N=C2N)CC1 [Compound 747] | – | – | – | – | inhibition at 0.3 µM ([2]; 0.3 μM compound, FS1 substrate): 41%; inhibition at 1 µM ([2]; 1 μM compound, FS1 substrate): 74%; inhibition at 3 µM ([2]; 3 μM compound, FS1 substrate): 104%; Ki [3]: 0.088 µM
34 | NC1=Nc2ccc(Oc3ccccc3)cc2CN1Cc1cccc(CNC(=O)C23CC4CC(CC(C4)C2)C3)c1 [Compound 336] | <30% | – | <30% | <30% | –
